The assay relates to melanoma patients. Put plainly: Survival and IHC biomarker expression in melanoma patients undergoing anti-PD-1 therapy. Type of assay: in vivo, human. Particulars: for progression-free survival: greater than 25% vs less than 25% 4E-BP1 expression in pre-treatment biopsies; for progression-free survival / overall survival: Kaplan-Meier; for patients still alive 35 months after initiation of treatment: melanoma patients with >25% p-SHP2 expression in pre-treatment biopsies; for overall survival: n=34, >25% vs less than 25% melanoma-p-S6 expression in pre-treatment biopsies. The protocol:
As used herein, the term “progression-free survival” refers to the time from the first administration of anti-PD-1-based therapy to the first documented radiographic evidence of progressive disease. The term “overall survival” is defined as the time from the first administration of anti-PD-1 therapy to the date of death, regardless of cause.
Tumor cell lines, culture methods and clinical specimens: Human G3361 and C8161 and murine B16-F10 melanoma cell lines were cultured in RPMI-1640 medium (Life Technologies) supplemented with 10% (v/v) fetal bovine serum (Life Technologies) and 1% (v/v) penicillin streptomycin (Life Technologies) and human MKL-1, MKL-2, MS-1, and WaGa Merkel cell carcinoma cell lines in RPMI-1640 medium supplemented with 20% (v/v) fetal bovine serum and 1% (v/v) penicillin streptomycin. Clinical melanoma specimens were obtained from patients in accordance with the Institutional Review Boards of Partners Health Care Research Management, Boston, Mass. and the University of Zurich, Switzerland. Informed consent was obtained from all subjects.
Immunohistochemical (IHC) staining methods: Tumor biopsy sections were deparaffininzed in xylene and subsequently rehydrated with 100%, 95%, and 75% ethanol and deionized H2O. Sections were placed in target retrieval solution (Dako) and boiled in a Pascal pressure chamber (Dako) at 125° C. for 30 seconds, 90° C. for 10 seconds, and then cooled down to room temperature. IHC was performed using the two-step peroxidase or alkaline phosphatase method. For peroxidase-based detection of p-S6 and p-AKT, sections were incubated with 1 ug/ml rabbit anti-p-56 ribosomal protein or rabbit anti-p-AKT (Ser473) antibody (Cell Signaling Technology) at 4° C. overnight and then incubated with a 1:200 dilution of goat anti-rabbit IgG peroxidase conjugated antibody (Vector Laboratories) at room temperature for 1 hour. Immunoreactivity was detected using the NovaRed peroxidase substrate (Vector laboratories), according to the manufacturer's protocol. For alkaline phosphatase-based detection of t-SHP2, p-SHP2, p-S6, p-AKT, p-PI3K, p-PDK1, 4E-BP1, or p-eIF-4G, sections were incubated with a 1:200 dilution of t-SHP2, p-SHP2 (Santa Cruz Biotechnology), p-S6, p-AKT, p-PI3K, p-PDK1, 4E-BP1, or p-eIF-4G antibody (Cell Signaling Technology) for 1 hour at room temperature, followed by incubation with a 1:100 dilution of biotin-conjugated secondary antibody (R&D Systems) for 30 minutes at room temperature and a subsequent incubation with a 1:100 dilution of streptavidin-alkaline phosphatase (Roche) for 30 minutes at room temperature. Immunoreactivity was detected using the FAST Red Chromogen System (Biolegend), per the manufacturer's instructions. Nuclear counterstaining (blue) was performed with Meyer's haemalum for both methods.
Imaging and quantification of IHC tumor sections: All images of IHC-stained sections were analyzed with a Nikon microscope (DXM 1200F) and captured using the NIS-Elements software (BR 2.30 Nikon). Expression of p-S6 and 4E-BP1 antigens was graded by n=2-3 independent investigators blinded to the study outcome on a scale of 0-4 (0: no p-S6 expression by melanoma cells; 1: p-S6 expression in 1%-25%; 2: 26%-50%; 3:51%-75%; 4: >75% of melanoma cells). For each slide, at least two areas with the highest numbers of 5-100(+) and MART-1(+) melanoma cells, as determined in serial sections, were selected for analysis.

The results in this text go back to patent publication US20180231554A1, “PROGRAMMED CELL DEATH (PD-1) INHIBITOR THERAPY FOR PATIENTS WITH PD-1-EXPRESSING CANCERS” (The Brigham and Women's Hospital, Inc., priority 2015, published 2018).

With Nivolumab, the progression-free survival entry is recorded as “significantly increased”, the “patients still alive 35 months after initiation of treatment” value is listed as 100% and the overall survival result was “significantly enhanced”.
As to Pembrolizumab, the progression-free survival entry is reported as “significantly increased”, the “patients still alive 35 months after initiation of treatment” value amounted to 100% and the overall survival entry is “significantly enhanced”.
